Laboratory results from BindingDB's records for doi:10.1016/j.ejmech.2017.02.016 (De Montfort University, 2017).

Experiments:
[1] = Inhibition of human CYP1B1 expressed in HEK293 cells assessed as potentiation of cisplatin-induced cytotoxicity by measuring cisplatin EC50 at 0.016 uM by MTT assay (Rvb = 61 +/- 8 uM)
[2] = Inhibition of human CYP1B1 expressed in human A2780 cells assessed as potentiation of cisplatin-induced cytotoxicity by measuring cisplatin EC50 at 0.016 uM by MTT assay (Rvb = 40 +/- 4.9 uM)
[3] = Inhibition of human CYP1B1 expressed in HEK293 cells assessed as potentiation of cisplatin-induced cytotoxicity by measuring cisplatin EC50 at 0.02 uM by MTT assay (Rvb = 61 +/- 8 uM)
[4] = Inhibition of human CYP1B1 expressed in human A2780 cells assessed as potentiation of cisplatin-induced cytotoxicity by measuring cisplatin EC50 at 0.02 uM by MTT assay (Rvb = 40 +/- 4.9 uM)
[5] = Inhibition of human CYP1B1 expressed in HEK293 cells assessed as potentiation of cisplatin-induced cytotoxicity by measuring cisplatin EC50 at 0.018 uM by MTT assay (Rvb = 61 +/- 8 uM)
[6] = Inhibition of human CYP1B1 expressed in human A2780 cells assessed as potentiation of cisplatin-induced cytotoxicity by measuring cisplatin EC50 at 0.018 uM by MTT assay (Rvb = 40 +/- 4.9 uM)

In the case of `O=c1cc(-c2ccccc2)oc2c1ccc1ccccc12`, the EC50 [1] is reported as 40 µM and the EC50 [2] is reported as 35 µM.

With `O=C(/C=C/c1ccc2ccccc2c1)c1cccnc1` the EC50 [3] was 1 µM and the EC50 [4] was 0.5 µM.

`COc1ccc2cc(C(=O)/C=C/c3cccnc3)ccc2c1` gave an EC50 [5] of 8.3 µM and an EC50 [6] of 3.3 µM.
